Measured values taken from patent publication US20240207263A1, “SELECTIVE MODULATORS OF ATAXIA TELA[…] (ATM) KINASE AND USES THEREOF” (priority 2021, published 2024).

Experiments:
ATM = ATM (Homo sapiens (Human), UniProt Q13315); test: biochemical; assay type: biochemical; conditions: read-out: ATM IC50
Text: Assay a): ATM Biochemical Potency
Data was collected by Caliper.

[1] = molecular target: ATM (phospho-ATM Ser1981) in SN38 treated HT-29 cells (Homo sapiens (Human), UniProt Q13315); test: cell-based; conditions: HT-29 cells, SN-38; read-out: SN-38 HT-29 cellular IC50
Sequence of ATM (phospho-ATM Ser1981) in SN38 treated HT-29 cells (Q13315 whole entry, looked up): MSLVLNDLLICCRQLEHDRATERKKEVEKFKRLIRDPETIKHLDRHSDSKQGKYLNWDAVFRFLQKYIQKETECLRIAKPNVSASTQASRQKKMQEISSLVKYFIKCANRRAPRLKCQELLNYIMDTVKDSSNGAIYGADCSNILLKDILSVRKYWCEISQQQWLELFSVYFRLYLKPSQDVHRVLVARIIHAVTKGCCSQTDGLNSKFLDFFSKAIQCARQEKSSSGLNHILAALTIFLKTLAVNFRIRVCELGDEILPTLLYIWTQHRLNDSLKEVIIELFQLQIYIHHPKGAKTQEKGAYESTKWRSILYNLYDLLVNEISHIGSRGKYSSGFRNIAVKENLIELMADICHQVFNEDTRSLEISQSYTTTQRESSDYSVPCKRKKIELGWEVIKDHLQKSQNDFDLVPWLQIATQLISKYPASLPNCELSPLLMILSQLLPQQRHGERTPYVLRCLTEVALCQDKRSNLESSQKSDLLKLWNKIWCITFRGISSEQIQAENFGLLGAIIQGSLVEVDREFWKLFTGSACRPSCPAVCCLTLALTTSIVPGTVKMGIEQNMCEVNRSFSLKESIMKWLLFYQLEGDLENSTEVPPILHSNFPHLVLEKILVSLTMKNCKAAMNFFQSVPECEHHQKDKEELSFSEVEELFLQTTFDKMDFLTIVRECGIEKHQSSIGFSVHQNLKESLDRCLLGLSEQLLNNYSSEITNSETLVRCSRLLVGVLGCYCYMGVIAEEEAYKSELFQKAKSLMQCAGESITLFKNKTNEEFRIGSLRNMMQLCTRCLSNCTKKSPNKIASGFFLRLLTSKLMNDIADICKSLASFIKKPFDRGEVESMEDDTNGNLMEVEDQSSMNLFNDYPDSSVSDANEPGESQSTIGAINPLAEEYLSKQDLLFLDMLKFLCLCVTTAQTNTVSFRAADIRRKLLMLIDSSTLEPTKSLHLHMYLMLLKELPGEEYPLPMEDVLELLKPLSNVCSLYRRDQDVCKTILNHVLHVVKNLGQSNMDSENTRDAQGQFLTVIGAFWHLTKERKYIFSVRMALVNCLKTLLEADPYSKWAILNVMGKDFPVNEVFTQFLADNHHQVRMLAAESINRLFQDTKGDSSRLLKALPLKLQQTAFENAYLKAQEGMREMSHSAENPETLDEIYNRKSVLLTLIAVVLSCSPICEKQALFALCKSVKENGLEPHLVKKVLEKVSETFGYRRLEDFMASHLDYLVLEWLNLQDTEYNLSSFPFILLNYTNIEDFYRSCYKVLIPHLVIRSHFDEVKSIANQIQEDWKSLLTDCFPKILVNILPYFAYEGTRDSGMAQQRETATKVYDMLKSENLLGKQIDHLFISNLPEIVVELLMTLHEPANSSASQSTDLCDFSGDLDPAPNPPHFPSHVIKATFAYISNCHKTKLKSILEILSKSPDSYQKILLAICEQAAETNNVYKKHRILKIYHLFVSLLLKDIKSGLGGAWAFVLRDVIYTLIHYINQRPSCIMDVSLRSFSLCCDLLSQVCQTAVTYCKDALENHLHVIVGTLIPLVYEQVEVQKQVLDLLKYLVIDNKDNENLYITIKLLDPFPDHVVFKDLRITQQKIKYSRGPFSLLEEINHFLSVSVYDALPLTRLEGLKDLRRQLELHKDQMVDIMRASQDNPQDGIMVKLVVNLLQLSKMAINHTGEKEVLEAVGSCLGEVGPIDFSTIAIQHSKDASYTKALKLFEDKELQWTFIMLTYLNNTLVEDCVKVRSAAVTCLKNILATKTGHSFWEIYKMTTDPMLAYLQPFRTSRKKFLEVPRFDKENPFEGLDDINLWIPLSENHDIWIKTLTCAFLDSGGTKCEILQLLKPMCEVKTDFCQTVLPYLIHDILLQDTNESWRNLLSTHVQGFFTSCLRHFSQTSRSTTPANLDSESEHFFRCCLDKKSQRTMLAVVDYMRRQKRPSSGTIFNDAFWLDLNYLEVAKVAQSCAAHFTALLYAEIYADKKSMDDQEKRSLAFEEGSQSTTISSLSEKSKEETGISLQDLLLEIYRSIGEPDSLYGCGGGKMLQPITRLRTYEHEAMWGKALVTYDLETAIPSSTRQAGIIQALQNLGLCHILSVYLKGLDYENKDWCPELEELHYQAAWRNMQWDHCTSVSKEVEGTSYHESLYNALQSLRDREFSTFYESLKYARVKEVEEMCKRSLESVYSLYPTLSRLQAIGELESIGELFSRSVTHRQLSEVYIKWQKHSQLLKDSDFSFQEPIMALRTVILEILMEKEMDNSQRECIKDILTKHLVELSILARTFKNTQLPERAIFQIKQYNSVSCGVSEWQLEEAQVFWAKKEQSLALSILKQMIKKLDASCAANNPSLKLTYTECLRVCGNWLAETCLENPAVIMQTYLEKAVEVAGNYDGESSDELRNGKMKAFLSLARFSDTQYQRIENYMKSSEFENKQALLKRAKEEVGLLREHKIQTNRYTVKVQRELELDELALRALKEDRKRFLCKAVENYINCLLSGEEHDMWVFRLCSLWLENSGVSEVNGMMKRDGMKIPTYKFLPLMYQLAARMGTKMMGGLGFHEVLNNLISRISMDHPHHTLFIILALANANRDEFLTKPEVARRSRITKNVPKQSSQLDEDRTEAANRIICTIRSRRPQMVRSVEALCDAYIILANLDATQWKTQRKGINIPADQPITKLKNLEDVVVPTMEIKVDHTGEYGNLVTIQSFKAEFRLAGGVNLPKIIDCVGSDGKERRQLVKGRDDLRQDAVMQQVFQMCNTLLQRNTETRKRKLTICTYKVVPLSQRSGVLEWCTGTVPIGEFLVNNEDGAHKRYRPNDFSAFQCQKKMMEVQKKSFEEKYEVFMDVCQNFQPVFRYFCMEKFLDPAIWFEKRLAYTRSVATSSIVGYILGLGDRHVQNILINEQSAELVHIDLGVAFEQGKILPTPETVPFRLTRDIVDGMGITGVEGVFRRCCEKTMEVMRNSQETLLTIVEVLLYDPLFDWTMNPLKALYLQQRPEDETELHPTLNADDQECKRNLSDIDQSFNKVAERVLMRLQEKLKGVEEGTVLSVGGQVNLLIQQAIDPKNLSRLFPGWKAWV
Method: Assay g): ATM SN-38 HT-29 Cellular Potency
SN38 causes single strand DNA breaks (SSBs) which are converted to double strand breaks (DSBs) during replication. ATM plays role of repairing DSBs. Inhibition of ATM was evaluated in SN38 treated HT-29 cells (ATCC, Cat #HTB-38) by high-Content Imaging System
The graphical views were then generated using Prism 7.0 (Graphpad).

[2] = system: phosp-KAP1 in MCF-7 cells; test: phosp-KAP1 MCF-7 cellular potency assay (Assay f); assay type: cell-based; conditions: Homo sapiens, MCF7; MCF-7 cells, etoposide; read-out: Etoposide MCF-7 cellular IC50
Method: Assay f): phosp-KAP1 MCF-7 Cellular Potency
MCF-7 cells were seeded to a 384-well cell-culture plate, 25 μl/well which were incubated at 37° C. and 5% CO2 for 24 hr. Test compounds were added to the 384-well plates. Etoposide at final concentration of 100 μM was then added to each well except Vehicle control wells, which were incubated at 37° C. and 5% CO2 for 1 hour. After medium removal, cells were fixed by the addition of 25 μl/well of 8% paraformaldehyde in PBSA and incubated for 20 minutes at room temperature. After the plates were rinsed 3 times with PBSA, 50 ul permeabilization buffer (0.1% Triton X-100 in PBS) was added and the plates were incubated for 20 minutes at room temperature. After the plates were rinsed with PBSA, block the cells by adding 50 μl of Odyssey Blocking Buffer in 384-well plate and then incubate for 1.5 hours at room temperature. Remove blocking buffer by Plate washer (BioTek ELx405 select CW). […] The plates were rinsed 5 times with PBST (0.1% Tween-20 in PBS).
• 1) Fluorescence intensity (FI) was detected for each well. • 2) % inhibition is calculated as follow:
[formula] • FIpositive: The average FI for the positive controls across the plate. • FIvehicle: The average FI for negative controls across the plate. • 3) Calculate IC50 and Plot effect-dose curve of compounds: • Calculate IC50 by fitting % inhibition values and log of compound concentrations to nonlinear regression (dose response−variable slope) with Graphpad prism 6.0.
Y=Bottom+(Top−Bottom)/(1+10^((Log IC50−X)*HillSlope)) • X: log of compounds concentration; Y: % inhibition

Sequence of ATM (Q13315 whole entry, looked up): as above

SMILES | IC50 (ATM) [nM] | IC50 [1] [nM] | IC50 [2] [nM]
CO[C@H]1CCN(CCOCc2ccc(-c3ccc4nnc5c(c4c3)n(C(C)C)c(=O)n5C)cn2)C1 [Example 43, (S)-1-isopropyl-8-(6-((2-(3-methoxypyrrolidin-1-yl)ethoxy)methyl)pyridin-3-yl)-3-methyl-1H-imidazo[4,5-c]cinnolin-2(3H)-one] | 12 | 92 | –
CC(C)n1c(=O)n(C)c2nnc3ccc(-c4ccc([C@@H](C)OCCN5CCC(OC(F)F)C5)nc4)cc3c21 (stereo partly drawn) [Example 54, 8-(6-((1R)-1-(2-(3-(difluoromethoxy)pyrrolidin-1-yl)ethoxy)ethyl)pyridin-3-yl)-1-isopropyl-3-methyl-1H-imidazo[4,5-c]cinnolin-2(3H)-one] | – | – | 17
CC(C)n1c(=O)n(C)c2nnc3ccc(-c4ccc([C@@H](C)OCCN5CCC6(CC5)CC6)nc4)cc3c21 [Example 55, (R)-8-(6-(1-(2-(6-azaspiro[2.5]octan-6-yl)ethoxy)ethyl)pyridin-3-yl)-1-isopropyl-3-methyl-1H-imidazo[4,5-c]cinnolin-2(3H)-one] | 3.2 | – | 11
CO[C@H]1CCN(CCO[C@H](C)c2ccc(-c3ccc4nnc5c(c4c3)n(C(C)C)c(=O)n5C)cn2)C1 [Example 59, 1-isopropyl-8-(6-((R)-1-(2-((S)-3-methoxypyrrolidin-1-yl)ethoxy)ethyl)pyridin-3-yl)-3-methyl-1H-imidazo[4,5-c]cinnolin-2(3H)-one] | 8.3 | – | 65
CC(C)n1c(=O)n(C)c2nnc3ccc(-c4ccc([C@@H](C)OCCN5CCC6(COC6)C5)nc4)cc3c21 [Example 86, (R)-8-(6-(1-(2-(2-oxa-6-azaspiro[3.4]octan-6-yl)ethoxy)ethyl)pyridin-3-yl)-1-isopropyl-3-methyl-1H-imidazo[4,5-c]cinnolin-2(3H)-one] | 3.6 | – | 12
Cn1c(=O)n(C2CCOCC2)c2c3cc(-c4ccc(COCCN5CCC(C)(C)C5)nc4)ccc3nnc21 [Example 97, 8-(6-((2-(3,3-dimethylpyrrolidin-1-yl)ethoxy)methyl)pyridin-3-yl)-3-methyl-1-(tetrahydro-2H-pyran-4-yl)-1H-imidazo[4,5-c]cinnolin-2(3H)-one] | 14 | – | 43
C[C@@H](OCCN1CCC(C)(C)CC1)c1ccc(-c2ccc3nnc4c(c3c2)n(C2CCOCC2)c(=O)n4C)cn1 [Example 103, (R)-8-(6-(1-(2-(4,4-dimethylpiperidin-1-yl)ethoxy)ethyl)pyridin-3-yl)-3-methyl-1-(tetrahydro-2H-pyran-4-yl)-1H-imidazo[4,5-c]cinnolin-2(3H)-one] | 3.9 | – | 20
CO[C@H]1CCN(CCO[C@H](C)c2ccc(-c3ccc4nnc5c(c4c3)n(C3CCOCC3)c(=O)n5C)cn2)C1 [Example 105, 8-(6-((R)-1-(2-((S)-3-methoxypyrrolidin-1-yl)ethoxy)ethyl)pyridin-3-yl)-3-methyl-1-(tetrahydro-2H-pyran-4-yl)-1H-imidazo[4,5-c]cinnolin-2(3H)-one] | – | – | 36
COC1CCN(CCO[C@H](C)c2ccc(-c3ccc4nnc5c(c4c3)n(C3CCOCC3)c(=O)n5C)cn2)CC1 [Example 110, (R)-8-(6-(1-(2-(4-methoxypiperidin-1-yL)ethoxy)ethyl)pyridin-3-yl)-3-methyl-1-(tetrahydro-2H-pyran-4-yl)-1H-imidazo[4,5-c]cinnolin-2(3H)-one] | 6.9 | – | 13
C[C@@H](OCCN1CCC(C(F)(F)F)CC1)c1ccc(-c2ccc3nnc4c(c3c2)n(C2CCOCC2)c(=O)n4C)cn1 [Example 117, (R)-3-methyl-1-(tetrahydro-2H-pyran-4-yl)-8-(6-(1-(2-(4-(trifluoromethyl)piperidin-1-yl)ethoxy)ethyl)pyridin-3-yl)-1H-imidazo[4,5-c]cinnolin-2(3H)-one] | 3.7 | – | 65
C[C@@H](OCCN1CCC2(CCC2)C1)c1ccc(-c2ccc3nnc4c(c3c2)n(C2CCOCC2)c(=O)n4C)cn1 [Example 118, (R)-8-(6-(1-(2-(6-azaspiro[3.4]octan-6-yl)ethoxy)ethyl)pyridin-3-yl)-3-methyl-1-(tetrahydro-2H-pyran-4-yl)-1H-imidazo[4,5-c]cinnolin-2(3H)-one] | 4.1 | – | 71
CC(C)n1c(=O)n(C)c2nnc3cc(F)c(-c4ccc(COCCN5CCC(C)(C)CC5)nc4)cc3c21 [Example 133, 8-(6-((2-(4,4-dimethylpiperidin-1-yl)ethoxy)methyl)pyridin-3-yl)-7-fluoro-1-isopropyl-3-methyl-1H-imidazo[4,5-c]cinnolin-2(3H)-one] | 13 | – | 44
CC(C)n1c(=O)n(C)c2nnc3cc(F)c(-c4ccc([C@@H](C)OCCN5CCC(C)(C)C5)nc4)cc3c21 [Example 137, (R)-8-(6-(1-(2-(3,3-dimethylpyrrolidin-1-yl)ethoxy)ethyl)pyridin-3-yl)-7-fluoro-1-isopropyl-3-methyl-1H-imidazo[4,5-c]cinnolin-2(3H)-one] | 6.3 | – | 22
CC(C)n1c(=O)n(C)c2nnc3cc(F)c(-c4ccc([C@@H](C)OCCN5CCC6(CC5)CC6)nc4)cc3c21 [Example 140, (R)-8-(6-(1-(2-(6-azaspiro[2.5]octan-6-yl)ethoxy)ethyl)pyridin-3-yl)-7-fluoro-1-isopropyl-3-methyl-1H-imidazo[4,5-c]cinnolin-2(3H)-one] | 2.8 | – | 14
COC1CCN(CCO[C@H](C)c2ccc(-c3cc4c(cc3F)nnc3c4n(C(C)C)c(=O)n3C)cn2)CC1 [Example 142, (R)-7-fluoro-1-isopropyl-8-(6-(1-(2-(4-methoxypiperidin-1-yl)ethoxy)ethyl)pyridin-3-yl)-3-methyl-1H-imidazo[4,5-c]cinnolin-2(3H)-one] | 4.7 | – | 24
CC(C)n1c(=O)n(C)c2nnc3cc(F)c(-c4ccc([C@@H](C)OCCN5CCC(OC(F)(F)F)CC5)nc4)cc3c21 [Example 144, (R)-7-fluoro-1-isopropyl-3-methyl-8-(6-(1-(2-(4-(trifluoromethoxy)piperidin-1-yl)ethoxy)ethyl)pyridin-3-yl)-1H-imidazo[4,5-c]cinnolin-2(3H)-one] | 2.9 | – | 47
C[C@@H](OCCN1CCC(C)(C)C1)c1ccc(-c2cc3c(cc2F)nnc2c3n(C3CCOCC3)c(=O)n2C)cn1 [Example 153, (R)-8-(6-(1-(2-(3,3-dimethylpyrrolidin-1-yl)ethoxy)ethyl)pyridin-3-yl)-7-fluoro-3-methyl-1-(tetrahydro-2H-pyran-4-yl)-1H-imidazo[4,5-c]cinnolin-2(3H)-one] | 8.5 | – | 43
CO[C@H]1C[C@@H](n2c(=O)n(C)c3nnc4ccc(-c5ccc(COCCN6CCC(F)CC6)nc5)cc4c32)C1 [Example 174, 8-(6-((2-(4-fluoropiperidin-1-yl)ethoxy)methyl)pyridin-3-yl)-1-(cis-3-methoxycyclobutyl)-3-methyl-1H-imidazo[4,5-c]cinnolin-2(3H)-one] | 28 | – | 26
CCC(OCCN1CCCC1)c1ccc(-c2ccc3nnc4c(c3c2)n(C(C)C)c(=O)n4C)cn1 (stereo not drawn) [Example 219, 1-isopropyl-3-methyl-8-(6-(1-(2-(pyrrolidin-1-yl)ethoxy)propyl)pyridin-3-yl)-1H-imidazo[4,5-c]cinnolin-2(3H)-one] | 57 | – | –
CCCC(OCCN1CCCC1)c1ccc(-c2ccc3nnc4c(c3c2)n(C(C)C)c(=O)n4C)cn1 (stereo not drawn) [Example 220, 1-isopropyl-3-methyl-8-(6-(1-(2-(pyrrolidin-1-yl)ethoxy)butyl)pyridin-3-yl)-1H-imidazo[4,5-c]cinnolin-2(3H)-one] | 147 | – | –
CC(C)C(OCCN1CCCC1)c1ccc(-c2ccc3nnc4c(c3c2)n(C(C)C)c(=O)n4C)cn1 (stereo not drawn) [Example 221, 1-isopropyl-3-methyl-8-(6-(2-methyl-1-(2-(pyrrolidin-1-yl)ethoxy)propyl)pyridin-3-yl)-1H-imidazo[4,5-c]cinnolin-2(3H)-one] | 156 | – | –
CC(C)n1c(=O)n(C)c2nnc3cc(F)c(-c4ccc(COCCN5CCC(F)CC5)nc4)cc3c21 [Ref compd 1, 7-fluoro-8-(6-((2-(4-fluoropiperidin-1-yl)ethoxy)methyl)pyridin-3-yl)-1-isopropyl-3-methyl-1H-imidazo[4,5-c]cinnolin-2(3H)-one, reference compound] | 25 | 273 | –
